Measured values as given in a melting point compilation (Tetko et al.; mined from patent text by program, amines drawn as free bases though some values may be those of a salt).

Compared with COc1cc(C)nc(NC(=O)NS(=O)(=O)c2cccc3c2C(Cl)=CC3)n1, COc1ccc(S(=O)(=O)NC(C)c2cc(F)ccc2-c2ccccc2F)cc1 (stereo not drawn) is lower in melting point: 168 to 172 °C for the first, 133 to 135 °C for the second.

Compared with O=C(Nc1ccc(O)cc1)OCC(Cl)(Cl)Cl, O=CNc1ccnc(C(=O)Nc2ccc(Oc3ccccc3)cc2)c1O is higher in melting point: 134 °C for the first, 208 °C for the second.

First: Cc1cc(Oc2ccc3nc(COc4ccc(CC5SC(=O)NC5=O)cc4)n(C)c3c2)cc(C)c1NC(=O)Nc1ccc([N+](=O)[O-])cc1 (stereo not drawn)
Second: CNC(=O)c1cc(Oc2ccc(NC(=O)Nc3ccc(Cl)c(C(F)(F)F)c3)cc2)ccn1
The melting point of the first is higher: 178 to 180 °C for the first, 82 to 85 °C for the second.

First: CCc1c(-c2cnccn2)ssc1=S
Second: Cc1ccc(C2COc3c(C)c(C)cc(C)c32)nc1 (stereo not drawn)
The melting point of the first is higher: 121 °C for the first, 69 to 70 °C for the second.

Compared with O=C(NOC(=O)c1ccccc1)OCC1c2ccccc2-c2ccccc21, O=C1OC(c2ccccc2)N=C1CCCCNC(=O)c1ccccc1 (stereo not drawn) is lower in melting point: 150 °C for the first, 118 to 122 °C for the second.

Compared with CC(C(=O)N(C)C)n1cc(-c2ccccc2)c(-c2ccccc2)n1 (stereo not drawn), CN1CCN(C)C1=Nc1ccccc1-c1ccccc1 is lower in melting point: 122 to 124 °C for the first, 90 to 91 °C for the second.

Compared with CCCCNc1nc2cccc(C(=O)OC)c2n1Cc1ccc(-c2ccccc2-c2nnn[nH]2)cc1, CCc1nc2c(C)cc(C)nc2n1Cc1ccc2nc(-c3ccccc3NS(=O)(=O)C(F)(F)F)ccc2c1 is higher in melting point: 163 to 167 °C for the first, 252 °C for the second.

Compared with Clc1cc(Nc2ccc(N3CCOCC3)cc2)ncn1, COc1ccc2oc(C(=O)c3cccnc3N3CCOCC3)cc2c1 is lower in melting point: 165 to 166 °C for the first, 85 to 88 °C for the second.

First: Oc1ccc2c(c1)OCC(c1cccc(C(F)(F)F)c1)C2c1ccc(OCCN2CCCC2)cc1 (stereo not drawn)
Second: Cc1ccccc1OCCCN1CCC(C(O)(c2ccc(F)cc2)c2ccc(F)cc2)CC1
The melting point of the first is lower: 87 to 89 °C for the first, 108 to 109 °C for the second.

Going from CCCCCCCNC(=O)N(C)c1cccc(-c2ccc(CCC(=O)O)cc2)c1 to CCCCCCCNC(=O)Nc1ccc(N(C)C)cc1C(=O)NC(C)(C)C1CCN(C(c2ccccc2)c2ccccc2)CC1, the melting point rises from 101 °C to 190 °C.

First: O=C1C(c2ccccc2)=C(c2cccc(Cl)c2)C(=O)N1c1ccc(Cl)cc1
Second: Cc1ccc(-c2ccc(S(N)(=O)=O)cc2)n1-c1ccc(Cl)cc1
The melting point of the first is lower: 51 °C for the first, 152 to 154 °C for the second.

Compared with O=C1c2ccc(O)cc2CCN1CCN1CCCC1, Cn1nc(C(=O)O)nc1NCCCOc1cccc(CN2CCCCC2)c1 is lower in melting point: 205 to 207 °C for the first, 130 °C for the second.

Compared with CC(C)Cn1cnc2cnc3ccc(OCc4ccccc4)cc3c21, CC(C)(C)c1cc(C(=O)COc2ccc(C(=O)OCc3ccccc3)c(O)c2)cc(C(C)(C)C)c1O is lower in melting point: 129 to 133 °C for the first, 123 to 124 °C for the second.

First: Cc1cc(C#CCc2ccc3c(c2)C(C)(C)CCC3(C)C)ccc1C(=O)O
Second: CC(C)(C)c1ccc(OCC(O)CN2CCC3(CC2)CSC2=C(O3)c3cc(Br)ccc3C(=O)C2=O)cc1 (stereo not drawn)
The melting point of the first is lower: 149 to 150 °C for the first, 150 to 152 °C for the second.

First: CC(C)c1c(-c2cc(C(F)(F)F)cc(C(F)(F)F)c2)ccc2nc(N)nc(N)c12
Second: O=C(c1ccc(C(F)(F)F)cc1S(=O)c1ccc(Cl)cc1)c1cnoc1C1CC1 (stereo not drawn)
The melting point of the first is higher: 212 to 214 °C for the first, 151 °C for the second.

First: CCN(CC)CCN=C=S
Second: CCOC(=O)CNC(=O)C1(CC)CCCCCCC1
The melting point of the first is higher: 83 to 83.5 °C for the first, 65 to 67 °C for the second.

First: CC1CC(=O)NN=C1c1ccc(N2CCOCC2)c([N+](=O)[O-])c1 (stereo not drawn)
Second: Cc1cc(N2CCOCC2)nc(N)c1N
The melting point of the first is higher: 223 to 225 °C for the first, 97 to 108 °C for the second.

Compared with CC(=O)Nc1ccccc1-n1cc2c(c1-c1ccccc1)c(=O)n(C)c(=O)n2C, CCn1c(=O)c2c(nc(/C=C/c3ccc(-c4ccccc4)cc3)n2C)n(CC)c1=O is lower in melting point: over 250 °C for the first, 200 to 201 °C for the second.

Compared with O=C1C(=Cc2ccc(Cl)cc2)CC23OC2C=CC=C13 (stereo not drawn), COc1ccc(S(=O)(=O)n2c(=O)n(-c3ccccc3)c3cc(Cl)ccc32)cc1OC is lower in melting point: 162 to 164 °C for the first, 154 °C for the second.

First: CN1CC(CNN)CC2c3cccc4c3c(cn4C)CC21 (stereo not drawn)
Second: CC(=O)NC(=O)N1CCSC1c1ccccc1OCCN1CCN(c2cccc(F)c2)CC1 (stereo not drawn)
The melting point of the first is lower: 102 to 103 °C for the first, 142 to 143 °C for the second.

Compared with COc1ccc2c(c1OC)C=NCN2CCC(=O)O, CCOC(=O)CCc1cc(C(=O)CCC(=O)O)ccc1OC is lower in melting point: 226 to 228 °C for the first, 128 to 129 °C for the second.

Compared with Cn1c2c(ccc1=O)C(NCCc1ccc(C(F)(F)F)cc1)CCC2 (stereo not drawn), O=C(Nc1ccc(N2CCCC2)nc1)c1cc2nc(C(F)(F)F)ccc2n1Cc1cccc(F)c1 is higher in melting point: 104 to 106 °C for the first, 219 to 220 °C for the second.

Compared with CCCOc1ccc(/C=C(\C)C(=O)O)cc1, CC(C)OCCOc1ccc(-c2ccc3c(c2)C=C(C(=O)O)CCN3C=O)cc1 is lower in melting point: 171 °C for the first, 165 to 166 °C for the second.

First: CCOC(=O)c1ccc2c(c1)ncn2-c1cc(Cl)ccc1O
Second: CCOC(=O)c1c(-c2ccc(OC)c(OC)c2)c2cc(Cl)ccc2[nH]c1=O
The melting point of the first is higher: over 360 °C for the first, 209 to 210 °C for the second.

Compared with OCC1Cc2sccc2CN1C(=S)Nc1cccc2cnccc12 (racemic), CCn1c(=O)ccc2cnc(Nc3ccc(F)cc3)nc21 is higher in melting point: 185 °C for the first, 215 to 217 °C for the second.

First: CCCn1c(=O)n(-c2ccc3c(c2)OCO3)c2ncc(NC(=O)OCC)cc21
Second: CCOC(=O)c1cc2c(C=O)c(OC[C@H]3CO3)ccc2[nH]1
The melting point of the first is lower: 146 to 147 °C for the first, 152 to 154 °C for the second.

First: CCOP(=O)(O)Cc1nnc2c(=O)[nH]c3cc(C(F)(F)F)ccc3n12
Second: Cc1cc(C(F)(F)C(F)(F)F)ccc1NC(=O)c1cccc(I)c1C(=O)NC(C)(C)CS(C)(=O)=O
The melting point of the first is higher: 276 to 280 °C for the first, 143 to 144 °C for the second.

First: CC1=C(C(=O)N(C)C)C(c2ccccc2Cl)c2c[nH]nc2N1 (stereo not drawn)
Second: CCOC(=O)c1csc(-c2ccccc2[N+](=O)[O-])n1
The melting point of the first is higher: 229 °C for the first, 82 to 84 °C for the second.

First: CN1CCN(C(=O)c2cc(S(=O)(=O)NC34CC5CC(CC(C5)C3)C4)ccc2N)CC1
Second: CCC(C#N)=C1CCN(c2ccc(N3C[C@H](CNC(C)=S)OC3=O)cc2F)CC1
The melting point of the first is higher: 214 to 215 °C for the first, 174 to 176 °C for the second.

First: CC(C)c1nc(C(=O)NC2CC2)c(C(=O)O)o1
Second: CC1CC(=O)c2ccc(C(C)C(=O)O)cc2C1 (stereo not drawn)
The melting point of the first is lower: 109 to 112 °C for the first, 196 to 199 °C for the second.

First: COc1cc(C#N)ccc1C(Br)C(Br)C(=O)c1ccc(C#N)cc1 (stereo not drawn)
Second: COc1cccc(Oc2cccc(C#CC(C)N(O)C(N)=O)c2)n1 (stereo not drawn)
The melting point of the first is higher: 163 to 165 °C for the first, 90 to 91 °C for the second.

First: Cn1nc(C#N)nc1NCCCOc1cccc(CN2CCCCC2)c1
Second: N#Cc1ccc(Cn2cncn2)cc1-c1ccc(OS(N)(=O)=O)c(Cl)c1
The melting point of the first is lower: 66 to 67 °C for the first, 133 to 136 °C for the second.

First: C=C(Nc1nc(-c2ccccc2)c(-c2nc3ccccc3c(=O)n2-c2ccc(OC)cc2)s1)c1ccco1
Second: ClC(c1ccccc1)(c1ccccc1)c1ccc2ccccc2c1
The melting point of the first is higher: 262 to 264 °C for the first, 92 to 93 °C for the second.

First: C#CCN1CC(=O)NC1=O
Second: Cc1ccc(N=C=S)c(C)c1COC(=O)[C@H]1[C@@H](C=C(Cl)C(F)(F)F)C1(C)C (relative stereo)
The melting point of the first is higher: 124 to 125 °C for the first, 60 °C for the second.

Compared with CC(C)(C)C(O)C(CSc1ccc(Cl)cc1)n1cncn1 (stereo not drawn), CC(C)n1nc(-c2cnc(N)nc2-c2ccccc2Br)ccc1=O is higher in melting point: 84 °C for the first, 203 to 205 °C for the second.

First: CCCCCCCCN(Cc1ccc(CN(CCCCCCCC)OC(=O)c2ccccc2)cc1)OC(=O)c1ccccc1
Second: O=C(CCCCCCCCC(=O)OC1CC(c2ccccc2)N(O)C(c2ccccc2)C1)OC1CC(c2ccccc2)N(O)C(c2ccccc2)C1 (stereo not drawn)
The melting point of the first is lower: 80 to 81 °C for the first, 138 to 158 °C for the second.

First: O=C(NCc1ccccc1)c1ccnc(NC(=O)c2cc(F)ccc2Cl)c1
Second: O=C(Nc1ccccc1)Nc1cccc(Nc2ncnc3[nH]cc(C(=O)c4ccccc4)c23)c1
The melting point of the first is lower: 180 to 181 °C for the first, over 300 °C for the second.

First: COc1ccc(C(=O)NNc2ccc(NC(=S)Nc3ccccc3)cc2)cc1
Second: Cc1oc(-c2ccccc2)nc1COc1cc(COc2ncccc2C=O)on1
The melting point of the first is higher: 178 °C for the first, 90 to 91 °C for the second.

Compared with CCCCCC[C@@H]1C[C@H](c2ccc(O)cc2)C(=O)O1, CCCCCCCOC(=O)Oc1ccncc1 is lower in melting point: 87 to 88 °C for the first, 44 to 50 °C for the second.

First: N#CCCNN=Cc1ccc(C=NNCCC#N)cc1
Second: O=S(=O)(NCCc1ccc(C(O)CCCO)cc1)c1ccc(Br)cc1 (stereo not drawn)
The melting point of the first is higher: 111 to 113 °C for the first, 107 to 108 °C for the second.

First: CC(C)(C)C(=O)OCC(CCn1cnc2c(=O)[nH]c(N)nc21)COC(=O)C(C)(C)C
Second: COc1nc(OC)nc(-n2cnc(SC)n2)n1
The melting point of the first is higher: 225 to 237 °C for the first, 160 °C for the second.

First: C=CC(O)(c1cccnc1)C(O)c1ccccc1Cl (stereo not drawn)
Second: C=CC(O)c1[nH]c(=O)c2c(ccc3nc(Nc4c(Cl)cccc4Cl)n(C)c32)c1C (stereo not drawn)
The melting point of the first is lower: 110 to 112 °C for the first, 235 to 236 °C for the second.

First: CC(=Cc1c(Cl)cc(N(C)C)cc1Cl)[N+](=O)[O-]
Second: Cc1cc2occc2c(Cl)n1
The melting point of the first is higher: 105 to 110 °C for the first, 64.5 to 66 °C for the second.

First: COCCOc1c(F)c(Oc2ccc(S(C)(=O)=O)nc2)cc2cc(C3=NCC(CC(N)=O)S3)[nH]c12 (stereo not drawn)
Second: CCOC(=O)C1CCc2cc(OC)ccc2C1=O (stereo not drawn)
The melting point of the first is higher: 143 to 144 °C for the first, 58 to 60 °C for the second.

Compared with CC(C)COC(=O)Oc1ccc(S(=O)(=O)c2ccc(S(N)(=O)=O)s2)cc1, CN1C(=O)c2ccccc2C(CCO)N1c1cccc([N+](=O)[O-])c1 (stereo not drawn) is higher in melting point: 111 to 112 °C for the first, 183 to 184 °C for the second.

First: COc1cc2c(cc1OC)-c1c(OC)c(OC)cc3c1C(C2)N(C)CC3 (stereo not drawn)
Second: COc1cc2c(cc1-c1ccccc1F)NC(=O)CC(c1cccc(-n3ccnc3C)c1)=N2
The melting point of the first is lower: 112 to 114 °C for the first, 220 to 222 °C for the second.

Compared with Cc1cc(F)c(N)cc1N, O=C(O)c1cc2ccsc2cn1 is higher in melting point: 112 °C for the first, 246 °C for the second.

Compared with CN1C2CCCC1CC(c1ccc(I)nn1)C2 (stereo not drawn), CC12CCC(O)CC1CCC1C2CCC2(CN3CCOCC3)C(O)C(N3CCCC3)CC12 (stereo not drawn) is higher in melting point: 163 to 166 °C for the first, 218 °C for the second.

Compared with O=C1c2ccccc2C(=O)N1CCCc1cn(C(c2ccccc2)(c2ccccc2)c2ccccc2)cn1, Fc1cc(CC2(Cc3ccnc(F)c3)c3ccccc3-c3cccnc32)ccn1 is lower in melting point: 211 to 214 °C for the first, 128 to 130 °C for the second.
